This passage reports inhibition and IC50 results from ChEMBL document CHEMBL4373715, “Discovery and Biological Evaluations of Halogenated 2,4-Diphenyl Indeno[1,2-b]pyridinol Derivatives as Potent Topoisomerase IIα-Targeted Chemotherapeutic Agents for Breast Cancer” (J Med Chem, 2019).

Assay [1] addresses T1, DNA topoisomerase 1 (Homo sapiens) (UniProt P11387).
T1 sequence (whole entry): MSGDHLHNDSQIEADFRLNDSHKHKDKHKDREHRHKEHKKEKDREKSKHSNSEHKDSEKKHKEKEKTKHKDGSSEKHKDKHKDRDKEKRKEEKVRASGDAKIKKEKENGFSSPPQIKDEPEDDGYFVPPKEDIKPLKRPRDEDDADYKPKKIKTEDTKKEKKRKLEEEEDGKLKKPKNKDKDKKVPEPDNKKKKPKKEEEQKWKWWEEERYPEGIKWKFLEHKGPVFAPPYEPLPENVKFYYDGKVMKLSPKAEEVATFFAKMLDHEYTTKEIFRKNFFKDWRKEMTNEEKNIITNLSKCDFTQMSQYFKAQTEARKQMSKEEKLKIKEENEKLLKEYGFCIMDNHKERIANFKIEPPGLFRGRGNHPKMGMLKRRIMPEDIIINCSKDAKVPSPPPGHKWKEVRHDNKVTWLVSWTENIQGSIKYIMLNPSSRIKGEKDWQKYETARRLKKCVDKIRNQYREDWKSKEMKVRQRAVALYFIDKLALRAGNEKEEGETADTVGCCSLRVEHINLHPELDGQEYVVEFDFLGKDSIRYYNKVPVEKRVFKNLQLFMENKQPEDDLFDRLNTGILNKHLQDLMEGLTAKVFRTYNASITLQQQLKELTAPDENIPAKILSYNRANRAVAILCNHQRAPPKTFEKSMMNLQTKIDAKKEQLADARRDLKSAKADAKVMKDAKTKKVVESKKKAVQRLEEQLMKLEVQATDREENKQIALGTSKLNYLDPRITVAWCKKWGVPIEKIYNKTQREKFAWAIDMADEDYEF
The experiment in a line: Inhibition of recombinant human topoisomerase 1-mediated relaxation of supercoiled pBR322 DNA at 100 uM measured after 30 mins by ethidium bromide staining based agarose gel electrophoresis relative to control.

The test system of the next assay is T47D. The assay is described as follows: Antiproliferative activity against human T47D cells measured after 72 hrs by EZ-Cytox assay. In kind it is functional, cell-based.
The subject of a further assay is HCT-15. The assay is described as follows: Antiproliferative activity against human HCT15 cells measured after 72 hrs by EZ-Cytox assay. The format is functional, cell-based. The conditions noted are these: HCT-15, 72 h.
For another assay, the system named is HeLa. The assay is described as follows: Antiproliferative activity against human HeLa cells measured after 72 hrs by EZ-Cytox assay. The format is functional, cell-based.
A further assay relates to DU-145. The experiment in a line: Antiproliferative activity against human DU145 cells measured after 72 hrs by EZ-Cytox assay. The format is functional, cell-based. The conditions noted are these: DU-145, 72 h.
Assay [2] deals with DNA topoisomerase 2-alpha (Homo sapiens) (UniProt P11388). The assay is described as follows: Inhibition of recombinant human topoisomerase 2alpha-mediated relaxation of supercoiled pBR322 DNA at 100 uM measured after 30 mins by ethidium bromide staining based agarose gel electrophoresis relative to control.

Where only a bound is given, the exact number is not on record here.

DNA topoisomerase 2-alpha (Homo sapiens), sequence (P11388 whole entry): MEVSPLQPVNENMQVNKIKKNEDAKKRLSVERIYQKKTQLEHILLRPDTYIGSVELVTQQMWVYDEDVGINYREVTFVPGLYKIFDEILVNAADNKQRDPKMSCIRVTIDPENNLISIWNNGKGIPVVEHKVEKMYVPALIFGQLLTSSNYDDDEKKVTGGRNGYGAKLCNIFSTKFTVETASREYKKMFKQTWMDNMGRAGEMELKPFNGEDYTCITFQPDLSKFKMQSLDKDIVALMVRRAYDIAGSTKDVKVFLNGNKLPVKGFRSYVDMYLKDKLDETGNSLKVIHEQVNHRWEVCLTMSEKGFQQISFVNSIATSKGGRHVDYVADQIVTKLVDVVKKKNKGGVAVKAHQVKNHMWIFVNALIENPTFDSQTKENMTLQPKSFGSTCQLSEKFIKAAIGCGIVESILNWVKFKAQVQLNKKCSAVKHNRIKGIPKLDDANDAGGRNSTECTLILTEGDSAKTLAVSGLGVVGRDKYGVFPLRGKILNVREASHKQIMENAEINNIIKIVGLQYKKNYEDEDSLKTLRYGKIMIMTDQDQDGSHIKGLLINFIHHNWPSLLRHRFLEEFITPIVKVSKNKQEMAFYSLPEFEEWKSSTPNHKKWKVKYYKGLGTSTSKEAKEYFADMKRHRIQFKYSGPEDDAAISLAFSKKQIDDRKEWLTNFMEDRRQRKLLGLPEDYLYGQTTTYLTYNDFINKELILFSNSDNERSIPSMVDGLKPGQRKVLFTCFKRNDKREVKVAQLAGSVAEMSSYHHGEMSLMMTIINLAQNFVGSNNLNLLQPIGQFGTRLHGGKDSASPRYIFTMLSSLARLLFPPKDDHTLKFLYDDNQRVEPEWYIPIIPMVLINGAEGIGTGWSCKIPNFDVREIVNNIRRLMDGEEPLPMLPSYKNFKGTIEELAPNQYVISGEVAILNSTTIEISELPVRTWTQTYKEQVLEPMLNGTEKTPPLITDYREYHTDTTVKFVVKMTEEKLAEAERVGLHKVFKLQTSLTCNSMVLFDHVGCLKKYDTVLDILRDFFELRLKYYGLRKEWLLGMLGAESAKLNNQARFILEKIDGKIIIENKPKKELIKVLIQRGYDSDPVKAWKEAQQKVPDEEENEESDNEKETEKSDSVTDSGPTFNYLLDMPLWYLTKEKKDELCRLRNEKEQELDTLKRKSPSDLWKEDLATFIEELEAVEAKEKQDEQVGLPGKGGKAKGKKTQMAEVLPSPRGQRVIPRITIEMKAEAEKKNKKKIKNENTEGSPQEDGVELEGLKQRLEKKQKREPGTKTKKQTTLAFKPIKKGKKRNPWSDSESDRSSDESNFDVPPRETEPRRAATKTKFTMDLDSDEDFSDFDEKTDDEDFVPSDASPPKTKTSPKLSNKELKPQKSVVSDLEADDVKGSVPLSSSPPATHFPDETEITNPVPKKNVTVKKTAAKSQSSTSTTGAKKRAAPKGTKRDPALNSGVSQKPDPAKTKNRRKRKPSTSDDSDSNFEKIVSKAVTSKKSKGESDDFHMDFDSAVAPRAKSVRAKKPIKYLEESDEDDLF

For the compound `Oc1ccc(-c2cc(-c3ccccc3F)nc3c2Cc2c(O)cccc2-3)cc1`, the inhibition (commonly how much of the control response was suppressed) in assay [1] was determined as 5.4%; in assay [2], 15.3%. The IC50 – broadly, the concentration needed to halve the response being measured – with T47D was determined as 0.87 µM; in the assay with HCT-15, 2.81 µM; in the assay with HeLa, 6.19 µM; in the assay on DU-145, 1.81 µM.

As to `Oc1ccc(-c2cc(-c3cccc(Cl)c3)nc3c2Cc2cccc(O)c2-3)cc1`, the inhibition in assay [1] turned out to be 0%; in assay [2], 24.4%. The IC50 in the assay with T47D was found to be 0.83 µM; in the assay with HCT-15, 1.3 µM; in the assay with HeLa, 6.23 µM; in the assay on DU-145, 0.03 µM.

On to `Oc1ccc2c(c1)-c1nc(-c3ccccc3O)cc(-c3ccccc3)c1C2`, for which the inhibition was determined as 0% in assay [1] and 2.8% in assay [2]. Besides, the IC50 with T47D is over 50 µM; in the assay on HCT-15 it was over 50 µM; in the assay on HeLa it was over 50 µM; in the assay on DU-145, 1.87 µM.

As for `Oc1cccc(-c2cc(-c3ccc(F)cc3)nc3c2Cc2c(O)cccc2-3)c1`, the figures for the inhibition in assay [1] and in assay [2] were 26.2% and 27.8%, respectively. The IC50 was 1.72 µM in the assay on T47D, 2.68 µM in the assay with HCT-15, 6.71 µM in the assay on HeLa and 0.56 µM in the assay with DU-145.

Regarding `Oc1ccccc1-c1cc(-c2ccccc2F)nc2c1Cc1cccc(O)c1-2`, the inhibition in assay [1] came out at 0%; in assay [2] it was 0.6%. Also, the IC50 in the assay with T47D was 4.56 µM; in the assay with HCT-15, 3.76 µM; in the assay on HeLa, 7.63 µM; with DU-145, 9.9 µM.

For the compound `Oc1cccc(-c2cc(-c3ccccc3F)nc3c2Cc2cccc(O)c2-3)c1`, the inhibition in assay [1] came out at 4%; in assay [2], 8.7%. The IC50 in the assay with T47D came out at 0.83 µM; in the assay on HCT-15, 8.33 µM; with HeLa it was 12.1 µM; with DU-145, 1.88 µM.

With `Oc1cccc(-c2cc(-c3ccccc3)c3c(n2)-c2cccc(O)c2C3)c1`, the inhibition was determined as 0.4% in assay [1] and 4.5% in assay [2]. Further, the IC50 with T47D stood at 3.92 µM; with HCT-15 it was 1.58 µM; in the assay with HeLa, 6.2 µM; in the assay on DU-145, 0.52 µM.

`Oc1ccc(-c2cc(-c3cccc(F)c3)nc3c2Cc2c(O)cccc2-3)cc1`: the figures for the inhibition in assay [1] and in assay [2] were 8.6% and 0.7%, respectively. In addition, the IC50 in the assay with T47D came to 0.57 µM; with HCT-15 it was 4.75 µM; in the assay with HeLa, 7.3 µM; in the assay on DU-145, 2.04 µM.

On to `Oc1cccc(-c2cc(-c3ccccc3)c3c(n2)-c2cc(O)ccc2C3)c1`, for which the inhibition in assay [1] turned out to be 0%; in assay [2], 3.5%. For the same compound, the IC50 in the assay with T47D is over 50 µM; with HCT-15, over 50 µM; with HeLa, over 50 µM; in the assay on DU-145, 0.42 µM.

Consider `Oc1ccc(-c2cc(-c3ccccc3)nc3c2Cc2cccc(O)c2-3)cc1`, for which the values for the inhibition in assay [1] and in assay [2] were 10.2% and 4%, respectively. Also, the IC50 with T47D is over 50 µM; in the assay with HCT-15, over 50 µM; with HeLa, over 50 µM; in the assay with DU-145, 4.13 µM.

As to `Oc1cccc(-c2cc(-c3ccccc3)nc3c2Cc2ccc(O)cc2-3)c1`, the values for the inhibition in assay [1] and in assay [2] were 0.5% and 1.2%, respectively. The IC50 amounted to 0.84 µM in the assay with T47D, 1.37 µM with HCT-15, 1.38 µM in the assay with HeLa and 1.57 µM in the assay with DU-145.

Regarding `Oc1ccc(-c2cc(-c3cccc(F)c3)nc3c2Cc2ccc(O)cc2-3)cc1`, the inhibition in assay [1] was found to be 3%; in assay [2] it was 6.2%. In addition, the IC50 in the assay on T47D is 0.7 µM; in the assay on HCT-15 it was 4.49 µM; in the assay with HeLa, 8.63 µM; in the assay with DU-145, 4.83 µM.

`Oc1ccc2c(c1)Cc1c(-c3ccccc3O)cc(-c3ccc(F)cc3)nc1-2`: the figures for the inhibition in assay [1] and in assay [2] were 0% and 6%, respectively. The IC50 in the assay on T47D stood at 3.14 µM; in the assay with HCT-15, 4.61 µM; with HeLa it was 14.3 µM; in the assay with DU-145, 4.76 µM.
